Measured values from US7790766B2, “Pharmaceutical compositions of short-acting sedative hypnotic agent” (Theravance, Inc., priority 2003, dated 2010).

Assay: Solubility in aqueous media
Assay type: physicochemical

CCCOC(=O)Cc1ccc(OCC(=O)N(CC)CC)c(OCC)c1 [Compound 1, [4-[(N,N-diethylcarbamoyl)methoxy]-3-ethoxyphenyl]acetic acid propyl ester]
Solubility in aqueous media: poorly, if, at all soluble
